Reference: patent US20250276983A1, “COMPOUNDS AND METHODS FOR MODULATING HER2” (IAMBIC THERAPEUTICS, INC., priority 2022, published 2025)
Where two headings read alike, the source gives them in different places.

Experiments:
BaF3_HER2WT cells = assay: Cell growth inhibition assay, BaF3_HER2WT; assay type: cell-based; conditions: 3 days treatment, CellTiterGlo 2.0, read-out: HER2 WT IC50 (nM), cell growth inhibition
BaF3_EGFRWT cells = assay: Cell growth inhibition assay, BaF3_EGFRWT; assay type: cell-based; conditions: 80 ng/mL recombinant human EGF, 3 days treatment, CellTiterGlo 2.0, read-out: EGFR WT IC50 (nM), cell growth inhibition
BaF3_HER2YVMA cells = assay: Cell growth inhibition assay, BaF3_HER2YVMA; assay type: cell-based; conditions: BaF3_HER2YVMA cells, 3 days treatment, CellTiterGlo 2.0, read-out: HER2-YVMA IC50 (nM), cell growth inhibition
wtERBB2 = wtERBB2 (Homo sapiens (Human), UniProt P04626); assay: HotSpot radiometric kinase activity assay, wtERBB2; assay type: biochemical; conditions: 30 nM wtERBB2, 10 μM 33P-ATP, 20 min preincubation, 2 hours, read-out: HER2 WT IC50
wtERBB2, sequence (P04626 23-1255): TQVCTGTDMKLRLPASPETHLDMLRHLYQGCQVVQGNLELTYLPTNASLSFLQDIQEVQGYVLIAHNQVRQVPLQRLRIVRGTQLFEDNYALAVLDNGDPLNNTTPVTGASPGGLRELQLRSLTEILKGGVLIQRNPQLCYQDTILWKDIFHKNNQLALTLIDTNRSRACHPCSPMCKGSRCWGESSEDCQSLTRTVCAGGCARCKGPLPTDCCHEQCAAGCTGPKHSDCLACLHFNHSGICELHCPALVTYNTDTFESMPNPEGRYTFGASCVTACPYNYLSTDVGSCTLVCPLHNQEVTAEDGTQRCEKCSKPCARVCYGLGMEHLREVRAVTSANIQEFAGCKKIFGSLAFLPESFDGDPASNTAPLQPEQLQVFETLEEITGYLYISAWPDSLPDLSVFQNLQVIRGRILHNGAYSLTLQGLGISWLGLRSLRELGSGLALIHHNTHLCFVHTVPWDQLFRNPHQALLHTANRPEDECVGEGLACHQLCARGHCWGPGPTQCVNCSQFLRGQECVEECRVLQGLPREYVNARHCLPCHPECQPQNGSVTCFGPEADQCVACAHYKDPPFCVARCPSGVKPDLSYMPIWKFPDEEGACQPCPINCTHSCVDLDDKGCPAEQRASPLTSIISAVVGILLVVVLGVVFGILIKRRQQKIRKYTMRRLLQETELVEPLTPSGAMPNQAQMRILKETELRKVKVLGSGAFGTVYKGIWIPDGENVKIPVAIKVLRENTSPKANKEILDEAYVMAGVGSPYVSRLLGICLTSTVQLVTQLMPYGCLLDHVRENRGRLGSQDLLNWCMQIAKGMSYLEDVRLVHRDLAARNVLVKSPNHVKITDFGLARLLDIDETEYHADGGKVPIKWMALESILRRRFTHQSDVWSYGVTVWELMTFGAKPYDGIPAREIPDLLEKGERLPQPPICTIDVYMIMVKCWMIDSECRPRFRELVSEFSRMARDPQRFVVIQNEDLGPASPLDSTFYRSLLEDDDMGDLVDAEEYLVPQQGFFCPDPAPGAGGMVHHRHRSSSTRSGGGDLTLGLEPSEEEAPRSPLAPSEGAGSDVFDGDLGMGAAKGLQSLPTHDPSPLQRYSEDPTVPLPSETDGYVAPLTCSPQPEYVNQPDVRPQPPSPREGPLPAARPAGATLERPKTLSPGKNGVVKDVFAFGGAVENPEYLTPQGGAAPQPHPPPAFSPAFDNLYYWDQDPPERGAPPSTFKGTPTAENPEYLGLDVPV
Description: The purpose of the wtERBB2, ERBB2-A775_G776insYVMA (ERBB2YVMA), wtEGFR biochemical assay was to evaluate the inhibition (% inhibition and IC50 values) of the small molecule inhibitors by using the “HotSpot” radiometric kinase activity assay. HotSpot assays monitor the […] of kinase substrate by the radioactive gamma phosphate of adenosine triphosphate (33P-ATP) during biochemical reactions. HotSpot assays was performed in steps upon completion of the kinase reaction: deposition of a reaction mixture aliquot onto P81 ion exchange paper, extensive washing of the aforementioned P81 paper using phosphoric acid to remove unbound radiolabeled 33P-ATP from the P81 paper, and finally visualization and quantification of the dried P81 paper utilizing a phosphoimager. […] Typical reaction solutions (10 μL final reaction volume) contained the following buffer conditions: 20 mM Hepes (pH 7.5), 10 mM MgCl2, 1 mM EGTA, 0.01% Brij35, 0.02 mg/mL BSA, 0.1 mM Na3VO4, 2 mM DTT, 1% DMSO. The assay was primed by preparing a fresh 0.2 mg/mL solution of pEY (Sigma Cat: P7244) substrate in the reaction buffer and supplementing that solution with […] of MnCl2 as substrate cofactor (Sigma Cat: M9522). The kinase of interest was then added to the solution at the appropriate concentration (30 nM wtERBB2 from, or 20 nM ERBB2YVMA, or 4 nM wtEGFR) and gently mixed prior to delivery of compound in 100% DMSO by acoustic dispensing (Beckman Echo550). Compound, Kinase, and substrate were allowed to incubate for 20 min at room temperature prior to the initiation of the reaction by addition of 33P-ATP (PerkinElmer Cat: NEG602, final conc 10 μM). […] IC50 determinations were made from a plot of kinase activity as a function of inhibitor concentration fit to the 4-parameter IC50 equation with the enzyme concentration held constant using GraphPad Prism (San Diego).

| SMILES | IC50 (BaF3_HER2WT cells; 72 h) [nM] | IC50 (BaF3_EGFRWT cells; 72 h) [nM] | IC50 (BaF3_HER2YVMA cells; 72 h) [nM] | IC50 (wtERBB2) [nM] | IC50 (BaF3_EGFRWT cells) [nM] | IC50 (BaF3_HER2WT cells) [nM] | IC50 (BaF3_HER2YVMA cells) [nM] |
| --- | --- | --- | --- | --- | --- | --- | --- |
| Cc1cc(Nc2ncnn3ccc(N4CC5(CCN(C(=O)/C=C/CN(C)C)C5)C4)c23)ccc1Oc1ccn2ncnc2c1 [Example 156, (2E)-4-(dimethylamino)-1-(2-{4-[(3-methyl-4-{[1,2,4]triazolo[1,5-a]pyridin-7-yloxy}phenyl)amino]pyrrolo[2,1-f][1,2,4]triazin-5-yl}-2,6-diazaspiro[3.4]octan-6-yl)but-2-en-1-one] | 200 to 500 | 1500 to 5000 | 1500 to 5000 | < 200 | – | – | – |
| C=CC(=O)N1CCC2(C1)CN(c1ccn3ncnc(Nc4ccc(Oc5ccn6ncnc6c5)c(C)c4)c13)C2 [Example 155, 1-(2-{4-[(3-methyl-4-{[1,2,4]triazolo[1,5-a]pyridin-7-yloxy}phenyl)amino]pyrrolo[2,1-f][1,2,4]triazin-5-yl}-2,6-diazaspiro[3.4]octan-6-yl)prop-2-en-1-one] | < 200 | 1500 to 5000 | 200 to 500 | < 200 | – | – | – |
| Cc1cc(Nc2ncnn3ccc([C@@H]4CCCN(C(=O)/C=C/CN(C)C)C4)c23)ccc1Oc1ccn2ncnc2c1 (single isomer, unassigned) [Example 107] | – | – | – | < 200 | – | – | – |
| C=C(F)C(=O)N1CC(n2cc(-c3ccn4ncnc(Nc5ccc(Oc6ccn7ncnc7c6)c(C)c5)c34)cn2)C1 [Example 19, 1-(3-(4-(4-((4-([1,2,4]triazolo[1,5-a]pyridin-7-yloxy)-3-methylphenyl)amino)pyrrolo[2,1-f][1,2,4]triazin-5-yl)-1H-pyrazol-1-yl)azetidin-1-yl)-2-fluoroprop-2-en-1-one] | 200 to 500 | 1500 to 5000 | 500 to 1500 | < 200 | – | – | – |
| Cc1cc(Nc2ncnn3ccc(C4CC5(C4)CN(C(=O)/C=C/CN(C)C)C5)c23)ccc1Oc1ccn2ncnc2c1 [Example 95, (E)-1-(6-(4-((4-([1,2,4]triazolo[1,5-a]pyridin-7-yloxy)-3-methylphenyl)amino)pyrrolo[2,1-f][1,2,4]triazin-5-yl)-2-azaspiro[3.3]heptan-2-yl)-4-(dimethylamino)but-2-en-1-one] | 200 to 500 | 1500 to 5000 | 500 to 1500 | < 200 | – | – | – |
| C=CC(=O)NC1CCN(C(=O)c2ccn3ncnc(Nc4ccc(Oc5ccn6ncnc6c5)c(C)c4)c23)CC1 [Example 5, N-(1-(4-((4-([1,2,4]triazolo[1,5-a]pyridin-7-yloxy)-3-methylphenyl)amino)pyrrolo[2,1-f][1,2,4]triazine-5-carbonyl)piperidin-4-yl)acrylamide] | < 200 | 1500 to 5000 | 200 to 500 | < 200 | – | – | – |
| Cc1cc(Nc2ncnn3ccc([C@H]4CCN(C(=O)/C=C/CN(C)C)C4)c23)ccc1Oc1ccn2ncnc2c1 [Example 100, (R,E)-1-(3-(4-((4-([1,2,4]triazolo[1,5-a]pyridin-7-yloxy)-3-methylphenyl)amino)-pyrrolo[2,1-f]1,2,4-triazin-5-yl)pyrrolidin-1-yl)-4-(dimethylamino)but-2-en-1-one] | – | – | – | < 200 | – | – | – |
| Cc1cc(Nc2ncnn3ccc([C@H]4CCCN(C(=O)/C=C/CN(C)C)CC4)c23)ccc1Oc1ccn2ncnc2c1 [Example 110, (S,E)-1-(4-(4-((4-([1,2,4]triazolo[1,5-a]pyridin-7-yloxy)-3-methylphenyl)amino)pyrrolo[2,1-f][1,2,4]triazin-5-yl)azepan-1-yl)-4-(dimethylamino)but-2-en-1-one] | – | – | – | < 200 | – | – | – |
| Cc1cc(Nc2ncnn3ccc([C@H]4CCCN(C(=O)/C=C/CN(C)C)C4)c23)ccc1Oc1ccn2ncnc2c1 [Example 108, (R,E)-1-(3-(4-((4-([1,2,4]triazolo[1,5-a]pyridin-7-yloxy)-3-methylphenyl)amino)-pyrrolo[2,1-f][1,2,4]-triazin-5-yl)piperidin-1-yl)-4-(dimethylamino)but-2-en-1-one] | – | – | – | < 200 | – | – | – |
| C=CC(=O)N(C)C1CCN(c2ccn3ncnc(Nc4ccc(Oc5ccn6ncnc6c5)c(C)c4)c23)CC1 [Example 74, N-(1-(4-((4-([1,2,4]triazolo[1,5-a]pyridin-7-yloxy)-3-methylphenyl)amino)pyrrolo[2,1-f][1,2,4]triazin-5-yl)piperidin-4-yl)-N-methylacrylamide] | < 200 | 1500 to 5000 | 500 to 1500 | – | – | – | – |
| Cc1cc(Nc2ncnn3ccc(C4CCN(C(=O)C(F)Cl)CC4)c23)ccc1Oc1ccn2ncnc2c1 (stereo not drawn) [Example 35, 1-(4-(4-((4-([1,2,4]triazolo[1,5-a]pyridin-7-yloxy)-3-methylphenyl)amino)pyrrolo[2,1-f][1,2,4]triazin-5-yl)piperidin-1-yl)-2-chloro-2-fluoroethan-1-one acetate] | < 200 | 1500 to 5000 | < 200 | – | – | – | – |
| Cc1cc(Nc2ncnn3cc(F)c(C4CCN(C(=O)/C=C/CN(C)C)CC4)c23)ccc1Oc1ccn2ncnc2c1 [Example 152, (E)-1-(4-(4-((4-([1,2,4]triazolo[1,5-a]pyridin-7-yloxy)-3-methylphenyl)amino)-6-fluoropyrrolo[2,1-f][1,2,4]triazin-5-yl)piperidin-1-yl)-4-(dimethylamino)but-2-en-1-one] | < 200 | 1500 to 5000 | < 200 | – | – | – | – |
| Cc1cc(Nc2ncnn3ccc(C4CCN(C(=O)/C=C/CN5CCCCC5)CC4)c23)ccc1Oc1ccn2ncnc2c1 [Example 57, (E)-1-(4-(4-((4-([1,2,4]triazolo[1,5-a]pyridin-7-yloxy)-3-methylphenyl)amino)pyrrolo[2,1-f][1,2,4]triazin-5-yl)piperidin-1-yl)-4-(piperidin-1-yl)but-2-en-1-one] | < 200 | 1500 to 5000 | < 200 | – | – | – | – |
| C=C(CN(C)C)C(=O)N1CC2CCC1CC2c1ccn2ncnc(Nc3ccc(Oc4ccn5ncnc5c4)c(C)c3)c12 (single isomer, unassigned) [Examples 135 and 136, first eluting isomer, 1-(5-(4-((4-([1,2,4]triazolo[1,5-a]pyridin-7-yloxy)-3-methylphenyl)amino)pyrrolo[2,1-f][1,2,4]triazin-5-yl)-2-azabicyclo[2.2.2]octan-2-yl)-2-((dimethylamino)methyl)prop-2-en-1-one] | < 200 | – | < 200 | – | 1500 to 5000 | – | – |
| Cc1cc(Nc2ncnn3ccc(C4CCN(C(=O)/C=C/[C@H]5CCCN5C)CC4)c23)ccc1Oc1ccn2ncnc2c1 [Example 25, (R,E)-1-(4-(4-((4-([1,2,4]triazolo[1,5-a]pyridin-7-yloxy)-3-methylphenyl)amino)pyrrolo[2,1-][1,2,4]triazin-5-yl)piperidin-1-yl)-3-(1-methylpyrrolidin-2-yl)prop-2-en-1-one] | < 200 | 1500 to 5000 | < 200 | – | – | – | – |
| Cc1cc(Nc2ncnn3ccc(C4CCN(C(=O)C#CCN(C)C)CC4)c23)ccc1Oc1ccn2ncnc2c1 [Example 64, 1-(4-(4-((4-([1,2,4]triazolo[1,5-a]pyridin-7-yloxy)-3-methylphenyl)amino)pyrrolo[2,1-f][1,2,4]triazin-5-yl)piperidin-1-yl)-4-(dimethylamino)but-2-yn-1-one] | < 200 | 200 to 500 | < 200 | – | – | – | – |
| Cc1cc(Nc2ncnn3ccc(C4CCN(C(=O)/C=C/CN5CCOCC5)CC4)c23)ccc1Oc1ccn2ncnc2c1 [Example 56, (E)-1-(4-(4-((4-([1,2,4]triazolo[1,5-a]pyridin-7-yloxy)-3-methylphenyl)amino)pyrrolo[2,1-f][1,2,4]triazin-5-yl)piperidin-1-yl)-4-morpholinobut-2-en-1-one] | < 200 | 1500 to 5000 | < 200 | – | – | – | – |
| Cc1cc(Nc2ncnn3ccc(C4CC5CCC4CN5C(=O)/C=C/CN(C)C)c23)ccc1Oc1ccn2ncnc2c1 (single isomer, unassigned; first eluting) [Examples 137 and 138, first eluting isomer] | – | – | – | – | 1500 to 5000 | < 200 | 200 to 500 |
| Cc1cc(Nc2ncnn3ccc(C4CN(C(=O)/C=C/C5CCCN5C)C4)c23)ccc1Oc1ccn2ncnc2c1 (stereo not drawn) [Example 66, (E)-1-(3-(4-((4-([1,2,4]triazolo[1,5-a]pyridin-7-yloxy)-3-methylphenyl)amino)pyrrolo[2,1-f][1,2,4]triazin-5-yl)azetidin-1-yl)-3-(1-methylpyrrolidin-2-yl)prop-2-en-1-one] | < 200 | 1500 to 5000 | < 200 | – | – | – | – |
